Measurements taken from patent US20200155487A1, “Treatment of obesity and its complications” (CymaBay Therapeutics, Inc., priority 2018, published 2020).

Tests used:
[1] = system: patients with type 2 diabetes; details: in SNAC carrier, 20 and 40 mg/day; cited from earlier work
[2] = system: NAFLD/NASH; details: in vivo; cited from earlier work
[3] = system: DIO-NASH C57BL/6J mouse; experiment: Diet-induced obese mouse model of NASH (DIO-NASH), 12 weeks dosing; assay type: in vivo; details: SD in parentheses
Description: The diet-induced obese mouse model of NASH (DIO-NASH) uses the C57BL/6J mouse fed a high fat diet that results in NAFLD/NASH. A protocol is described in Kristiansen et al., “Obese diet-induced mouse models of nonalcoholic steatohepatitis—tracking disease by liver biopsy”, World J. Hepatol., 8(16), 673-684 (2016). Male C57BL/6J mice were fed an atherogenic 40% high fat diet (AMLN diet, D09100301, Research Diet, US—40 kcal % fat (18% trans fat), 40 kcal % carbohydrate (20% fructose), 2% cholesterol) for 43 weeks before the start of the trial, to induce NAFLD/NASH. At week −3, the mice underwent a liver biopsy, which was scored for steatosis and fibrosis; mice with fibrosis stage <1 and steatosis score <2 were deselected prior to randomization. A stratified randomization into treatment groups was performed according to liver Collal quantification. […] At 12 weeks, analyses included body weight, plasma ALT, AST, triglycerides, and total cholesterol; liver triglycerides and total cholesterol; and NAS, fibrosis, Collal, galectin-3, and steatosis and fibrosis scores from a liver biopsy. Results are given in the table below: standard deviations are in parentheses: […]

[4] = system: Alms1 mutant (foz/foz) mice; details: mouse, in vivo; cited from earlier work
[5] = system: obese subjects; experiment: Example 2 clinical study, single agent seladelpar in obese subjects, 52 weeks; assay type: in vivo, human; details: 10, 20, and 50 mg/day for 52 weeks
Description: Subjects are permitted their usual other medications (e.g. antidiabetic medications such as metformin or […]) but not glitazones, PPAR agonists, OCA, or similar medications. […] The primary efficacy outcome is the change in body weight. Other outcome measures related to the complications of obesity include change in baseline in liver fat content at 12 weeks, as measured by magnetic resonance imaging-derived proton density fat fraction (MRI-PDFF), histological improvement in NASH and fibrosis, assessed by comparing liver biopsy samples at baseline and at 52 weeks after the start of dosing; MRI-PDFF at 26 and 52 weeks; and measurements of total cholesterol, HDL-C, LDL-C, VLDL-C, TGs, apoB, and liver transaminases. The subjects also maintain health diaries, which are reviewed at each visit.

[6] = system: dyslipidemic overweight patients; details: cited from earlier work; for reduction of alkaline phosphatase: control group 4%
[7] = system: women and men; details: human, in vivo; cited from earlier work
[8] = compared to placebo, alone and with atorvastatin, 8 weeks

semaglutide
efficacy of once/day oral dosing [1]: efficacious

CCCCCCCCCCC[C@@H](C[C@@H]1OC(=O)[C@H]1CCCCCC)OC(=O)[C@H](CC(C)C)NC=O [orlistat]
benefit in NAFLD/NASH compared to weight loss alone [2]: no significant benefit

CCO[C@H](COc1ccc(C(F)(F)F)cc1)CSc1ccc(OCC(=O)O)c(C)c1 [Seladelpar, (R)-2-(4-((2-ethoxy-3-(4-(trifluoromethyl)phenoxy)propyl)-sulfanyl)-2-methylphenoxy)acetic acid]
NAS post-treatment ([3]; after 12 weeks dosing): 3.9 (0.5) | Liver TC ([3]; at 12 weeks): 10 (3) mg/g liver | Liver TG ([3]; at 12 weeks): 75 (20) mg/g liver | Plasma TC ([3]; at 12 weeks): 257 (40) mg/dL | Plasma TG ([3]; at 12 weeks): 38 (20) mg/dL | NAS pre-treatment ([3]; baseline biopsy before dosing): 6.0 (0.8) | Sirius red stain ([3]; liver biopsy at 12 weeks): 2.4 (1.8) % | ALT ([3]; plasma, at 12 weeks): 107 (65) U/L | AST ([3]; plasma, at 12 weeks): 162 (59) U/L | NASH pathology (hepatic steatosis, inflammation, fibrosis) [4]: improves NASH pathology | improvement in obesity and complications (body weight, MRI-PDFF, liver biopsy, NAS score) [5]: dose-related improvement | reduction of γ-glutamyl transpeptidase ([6]; 8 weeks, control group 3%): 24-28% | reduction of alkaline phosphatase ([6]; 8 weeks): 32-43% | reduction of apoB100 ([6]; compared to placebo, 50 or 100 mg alone or with atorvastatin 20 mg, 8 weeks, P<0.05): 20-38% | raise of HDL-C [6, 8]: 1-12% | reduction of LDL [6, 8]: 18-43% | reduction of free fatty acids [6, 8]: 16-28% | reduction of high-sensitivity C-reactive protein [6, 8]: 43-72% | reduction of non-HDL-C [6, 8]: 18-41% | reduction of triglycerides [6, 8]: 26-30% | depletion of small dense LDL particles ([6]; in vivo): 92% | reduction of the percentage of subjects meeting the criteria for metabolic syndrome ([6]; in vivo): > 2 fold | safety and tolerability ([6]; in vivo): safe and generally well-tolerated

CC(C)c1c(C(=O)Nc2ccccc2)c(-c2ccccc2)c(-c2ccc(F)cc2)n1CC[C@@H](O)C[C@@H](O)CC(=O)O [ATV, reference compound]
increase of γ-glutamyl transpeptidase ([6]; 8 weeks, atorvastatin 20 mg): 2% | reduction of alkaline phosphatase ([6]; 8 weeks): 6%

CCc1ccc(CCOc2ccc(CC3SC(=O)NC3=O)cc2)nc1 (stereo not shown) [pioglitazone]
associated risks [7]: significantly increased risk of weight gain, edema, congestive heart failure, and osteoporotic fractures
